In US20240398764A1, “METHODS OF TREATING DISEASES ASSOCIATED WITH SENESCENT CELL ACCUMULATION” (University of Florida Research Foundation, Incorporated, priority 2021, published 2024):

What was measured:
Bcl-xL = biological target: T1, Bcl-xL (Mus musculus, UniProt Q64373); experiment: Bcl-xL level in livers of STZ/HFD mice (Western blotting); format: in vivo, C57BL6 mice; details: 5 mg/kg twice a week IP, postnatal day 90, vs vehicle
T1 construct: Western blot of Bcl-xl levels in the livers of STZ/HFD mice treated with 753b or vehicle control; from tissue; host or cells: liver of C57BL6 mice (STZ plus high fat diet)
T1 sequence (Q64373 whole entry): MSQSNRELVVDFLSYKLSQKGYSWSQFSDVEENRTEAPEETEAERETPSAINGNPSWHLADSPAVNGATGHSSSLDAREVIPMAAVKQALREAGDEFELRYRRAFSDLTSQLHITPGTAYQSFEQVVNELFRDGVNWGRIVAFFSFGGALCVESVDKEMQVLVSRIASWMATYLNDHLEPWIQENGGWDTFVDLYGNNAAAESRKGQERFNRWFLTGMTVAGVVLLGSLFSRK
Protocol: GAPDH was used as a loading control. FIG. 6B depicts the relative expression of p16 and p21 at mRNA levels in the livers of STZ/HFD mice treated with 753b or vehicle control. *p<0.05. FIGS. 6C to 6D show senescence-associated beta-galactosidase (SA-β-gal) stained livers of STZ/HFD mice treated with vehicle control (FIG. 6C) or 753b (FIG. 6D). Scale bar: […].
Experimental design: C57BL6 mice were injected with Streptozotocin (STZ) at postnatal day 2 to induce diabetes and then fed with HFD from postnatal day 30 till the end of the experiments (FIG. 5). Half of the mice started receiving vehicle and the others receiving 753b (5 mg/kg) treatment on postnatal day 45 twice a week by IP injection till the end of the experiments. A group of the mice were euthanized at postnatal day 90 (or day 45 after the initiation of the treatment) for analysis of senescent cell accumulation and steatosis. Another group of the mice were euthanized at postnatal day 150 (or day 105 after the initiation of the treatment) for analysis of liver fibrosis and cancer.
753b effectively clears senescent cells induced by STZ/HFD in the liver. The liver tissues were collected from mice at postnatal day 90 (p90 or 45 days after treatment) for the analyses. […] Data were means±SD of triplicate experiments.

Bcl-2 = Bcl-2 (Homo sapiens, UniProt P10415); experiment: Immunoblot of Bcl-2 degradation in HEK293T cells; format: cell-based; set-up: endogenous in cells; details: different concentrations for 16 h, or 1 μM for various time points
Chain of Bcl-2 (P10415 whole entry): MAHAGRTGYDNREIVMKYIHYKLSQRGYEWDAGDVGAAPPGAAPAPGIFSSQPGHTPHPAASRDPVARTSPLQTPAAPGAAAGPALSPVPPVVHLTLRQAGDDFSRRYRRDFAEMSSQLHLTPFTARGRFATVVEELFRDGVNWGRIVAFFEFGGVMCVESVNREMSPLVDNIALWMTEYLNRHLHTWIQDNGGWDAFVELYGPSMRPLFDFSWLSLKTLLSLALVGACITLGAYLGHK
Protocol: FIG. 1A depicts immunoblots showing degradation of Bcl-xl and Bcl-2 in HEK293T cells treated with various concentrations of 753b for 16 hours. FIG. 1B depicts immunoblots showing degradation of Bcl-xl and Bcl-2 in HEK293T cells treated with 1 μM 753b for various durations. 3-actin was used as a loading control.
The potency of 753b in degrading Bcl-xl/2 was evaluated in 293T cells by immunoblots after the cells were treated with different concentrations of 753b for 16 h (FIG. 1A) or after the cells were treated with 1 μM 753b for various time points as indicated (FIG. 1B). Representative immunoblots are shown, and β-actin was used as a loading control.

Structure (SMILES): Cc1ncsc1-c1ccc([C@H](C)NC(=O)[C@@H]2C[C@@H](O)CN2C(=O)[C@@H](NC(=O)CCCCCCC(=O)N2CCN(C[C@]3(C)CCC(c4ccc(Cl)cc4)=C(CN4CCN(c5ccc(C(=O)NS(=O)(=O)c6ccc(N[C@H](CCN7CCOCC7)CSc7ccccc7)c(S(=O)(=O)C(F)(F)F)c6)cc5)CC4)C3)CC2)C(C)(C)C)cc1 [Compound 753b]
- Bcl-xL accumulation in the livers (Bcl-xL): reduced Bcl-xL accumulation
- Bcl-2 degradation (Bcl-2): degrades Bcl-xl and Bcl-2 in a dose- and time-dependent manner
